Read-outs that look alike come from different tables or passages of the source.
Tests used:
Assay type in all cases: cell-based
[1] = test system: Trypanosoma brucei Lister 427 VSG221 with APOL1 G1 recombinant protein; assay: APOL1 G1 trypanosome cell rescue assay (Example B5); conditions: geometric mean of at least 2 assay runs, † = single assay run
In short: (§1)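 Viability read by CellTiter-Glo luminescence after 20 h co-incubation (37° C, 5% CO2) of 250 trypanosomes/well in modified HMI-9 with test compound (duplicate 11-point, 2-fold dilutions, 0.4% DMSO) and APOL1 protein, […]. Protein: mature residues 28-398, E. coli inclusion-body refolded, tag cleaved, in DDM.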

[2] = test system: Trypanosoma brucei Lister 427 VSG221 with APOL1 G2 recombinant protein; assay: APOL1 G2 trypanosome cell rescue assay (Example B5); conditions: geometric mean of at least 2 assay runs, † = single assay run
In short: as §1

[3] = test system: HEK293 clonal cell line overexpressing APOL1 G1; assay: APOL1 G1 HEK293 cell rescue assay (Example B3); conditions: geometric mean of at least 2 runs, † = single run, ¥ = concentration at 50% rescue estimated (no sigmoidal curve)
In short: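 Rescue of cell death caused by APOL1 G1 overexpression was measured in a clonal HEK293 line. Compounds were tested in duplicate on one plate, and EC50s were geometric means across at least two runs on different days. Some values are estimated 50%-rescue concentrations where curve fitting failed.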

[4] = Trypanosoma brucei, 20 h, read-out: APOL1 G1 Trypanosome Rescue EC50, Trypanosoma brucei Lister 427 VSG221 with APOL1 G1 recombinant protein, 20 hours, CellTiter-Glo
[5] = Trypanosoma brucei, 20 h, read-out: APOL1 G2 Trypanosome Rescue EC50, Trypanosoma brucei Lister 427 VSG221 with APOL1 G2 recombinant protein, 20 hours, CellTiter-Glo
[6] = Homo sapiens, HEK293, HEK293 clonal line overexpressing APOL1 G1
[7] = read-out: APOL1 G1 Trypanosome Rescue EC50, Trypanosoma brucei Lister 427 VSG221 with APOL1 G1 recombinant protein, 20 hours, CellTiter-Glo
[8] = read-out: APOL1 G2 Trypanosome Rescue EC50, Trypanosoma brucei Lister 427 VSG221 with APOL1 G2 recombinant protein, 20 hours, CellTiter-Glo
[9] = HEK293 clonal line overexpressing APOL1 G1

Row | Compound | EC50 [1, 4] [nM] | EC50 [2, 5] [nM] | EC50 [3, 6] [nM] | EC50 [1, 7] [nM] | EC50 [2, 8] [nM] | EC50 [3, 9] [nM]
1 | C[C@@H](COc1ccc(S(C)(=O)=O)cc1)N1CCC2(CC1)C(=O)Nc1ccc(Cl)cc12 (single isomer, unassigned) [Compound 10] | 352 | 93.3 | 444 |  |  | 
2 | C[C@@H](COc1ccc(S(C)(=O)=O)cc1)N1CCC2(CC1)C(=O)Nc1ccccc12 (single isomer, unassigned) [Compound 12] | 1950 | 494 | 1140 |  |  | 
3 | C[C@@H](CN1CCC2(CC1)C(=O)Nc1ccccc12)Oc1ccc(S(C)(=O)=O)cc1 (single isomer, unassigned) [Compound 13] | > 4000 | > 4000 | > 30000 |  |  | 
4 | O=C1NCC2c3ccc(OCCN4CCC5(CC4)C(=O)Nc4ccc(Cl)cc45)cc3CCN12 (single isomer, unassigned) [Compound 116, (S) or (R)-5-chloro-1′-[2-({3-oxo-1H,2H,3H,5H,6H,10bH-imidazo[4,3-a]isoquinolin-8-yl}oxy)ethyl]-1,2-dihydrospiro[indole-3,4′-piperidin]-2-one] |  | 69.2 | 234 | 209 |  | 
5 | O=C1NCC2c3ccc(OCCN4CCC5(CC4)C(=O)Nc4ccc(Cl)cc45)cc3CCN12 (single isomer, unassigned) [Compound 117, (R) or (S)-5-chloro-1′-[2-({3-oxo-1H,2H,3H,5H,6H,10bH-imidazo[4,3-a]isoquinolin-8-yl}oxy)ethyl]-1,2-dihydrospiro[indole-3,4′-piperidin]-2-one] |  |  |  | 423 | 117 | 174
6 | N#Cc1ccc2c(c1)C1(CCN(CCOc3ccc4c(c3)CCN3C(=O)NCC43)CC1)C(=O)N2 (single isomer, unassigned) [Compound 120, (R) or (S)-2-oxo-1′-[2-({3-oxo-1H,2H,3H,5H,6H,10bH-imidazo[4,3-a]isoquinolin-8-yl}oxy)ethyl]-1,2-dihydrospiro[indole-3,4′-piperidine]-5-carbonitrile] | 1250 | 346 |  |  |  | > 5230
7 | O=C1CCC2c3ccc(OCCN4CCC5(CC4)C(=O)Nc4ccc(Cl)cc45)cc3CCN12 (single isomer, unassigned) [Compound 122, (S) or (R)-5-chloro-1′-[2-({3-oxo-1H,2H,3H,5H,6H,10bH-pyrrolo[2,1-a]isoquinolin-8-yl}oxy)ethyl]-1,2-dihydrospiro[indole-3,4′-piperidin]-2-one] | 337 | 108 | 188 |  |  | 
8 | O=C1CCC2c3ccc(OCCN4CCC5(CC4)C(=O)Nc4ccc(Cl)cc45)cc3CCN12 (single isomer, unassigned) [Compound 123, (R) or (S)-5-chloro-1′-[2-({3-oxo-1H,2H,3H,5H,6H,10bH-pyrrolo[2,1-a]isoquinolin-8-yl}oxy)ethyl]-1,2-dihydrospiro[indole-3,4′-piperidin]-2-one] |  |  |  | 258 | 76.9 | 232
9 | CC(c1ccc(OCCN2CCC3(CC2)C(=O)Nc2ccc(C#N)cc23)cc1)S(C)(=O)=O (single isomer, unassigned) [Compound 134, (S) or (R)-1′-{2-[4-(1-methanesulfonylethyl)phenoxy]ethyl}-2-oxo-1,2-dihydrospiro[indole-3,4′-piperidine]-5-carbonitrile] | 991 | 277 | 991 |  |  | 
10 | CC(c1ccc(OCCN2CCC3(CC2)C(=O)Nc2ccc(C#N)cc23)cc1)S(C)(=O)=O (single isomer, unassigned) [Compound 135, (R) or (S)-1′-{2-[4-(1-methanesulfonylethyl)phenoxy]ethyl}-2-oxo-1,2-dihydrospiro[indole-3,4′-piperidine]-5-carbonitrile] |  |  |  | 1200 | 303 | 1140
11 | CC(c1c(F)cc(OCCN2CCC3(CC2)C(=O)Nc2ccc(C#N)cc23)cc1F)S(C)(=O)=O (single isomer, unassigned) [Compound 138, (S) or (R)-1′-{2-[3,5-difluoro-4-(1-methanesulfonylethyl)phenoxy]ethyl}-2-oxo-1,2-dihydrospiro[indole-3,4′-piperidine]-5-carbonitrile] | 585 | 165 | 253 |  |  | 
12 | CC(c1c(F)cc(OCCN2CCC3(CC2)C(=O)Nc2ccc(C#N)cc23)cc1F)S(C)(=O)=O (single isomer, unassigned) [Compound 139, (R) or (S)-1′-{2-[3,5-difluoro-4-(1-methanesulfonylethyl)phenoxy]ethyl}-2-oxo-1,2-dihydrospiro[indole-3,4′-piperidine]-5-carbonitrile] |  |  |  | 537 | 147 | 383
13 | CC(c1c(F)cc(OCCN2CCC3(CC2)C(=O)Nc2ccc(Cl)cc23)cc1F)S(C)(=O)=O (single isomer, unassigned) [Compound 142, (S) or (R)-5-chloro-1′-{2-[3,5-difluoro-4-(1-methanesulfonylethyl)phenoxy]ethyl}-1,2-dihydrospiro[indole-3,4′-piperidin]-2-one] | 98.3 | 35.3 | 192 |  |  | 
14 | CC(c1c(F)cc(OCCN2CCC3(CC2)C(=O)Nc2ccc(Cl)cc23)cc1F)S(C)(=O)=O (single isomer, unassigned) [Compound 143, (R) or (S)-5-chloro-1′-{2-[3,5-difluoro-4-(1-methanesulfonylethyl)phenoxy]ethyl}-1,2-dihydrospiro[indole-3,4′-piperidin]-2-one] |  |  |  | 64.1 | 21.1 | 125
15 | CN=S(C)(=O)c1ccc(OCCN2CCC3(CC2)C(=O)Nc2ccc(Cl)cc23)cc1 (single isomer, unassigned) [Compound 148, (S) or (R)-5-chloro-1′-(2-{4-[methyl(methylimino)oxo-λ^6-sulfanyl]phenoxy}ethyl)-1,2-dihydrospiro[indole-3,4′-piperidin]-2-one] | 201 | 61.8 | 282 |  |  | 
16 | CN=S(C)(=O)c1ccc(OCCN2CCC3(CC2)C(=O)Nc2ccc(Cl)cc23)cc1 (single isomer, unassigned) [Compound 149, (R) or (S)-5-chloro-1′-(2-{4-[methyl(methylimino)oxo-λ^6-sulfanyl]phenoxy}ethyl)-1,2-dihydrospiro[indole-3,4′-piperidin]-2-one] |  |  |  | 174 | 51.8 | 246
17 | CN=S(C)(=O)c1ccc(OCCN2CCC3(CC2)C(=O)Nc2ccc(C#N)cc23)cc1 (single isomer, unassigned) [Compound 151, (S) or (R)-1′-(2-{4-[methyl(methylimino)oxo-λ^6-sulfanyl]phenoxy}ethyl)-2-oxo-1,2-dihydrospiro[indole-3,4′-piperidine]-5-carbonitrile] | 1330 | 347 | ~2500 |  |  | 
18 | CN=S(C)(=O)c1ccc(OCCN2CCC3(CC2)C(=O)Nc2ccc(C#N)cc23)cc1 (single isomer, unassigned) [Compound 152, (R) or (S)-1′-(2-{4-[methyl(methylimino)oxo-λ^6-sulfanyl]phenoxy}ethyl)-2-oxo-1,2-dihydrospiro[indole-3,4′-piperidine]-5-carbonitrile] |  |  |  | 1530 | 416 | > 4170

— US12344610B2, “APOL1 inhibitors and methods of use” (Maze Therapeutics, Inc., priority 2022, dated 2025)
